From patent US11365161B2, “Urea ammonium sulphate-based composition and method for the manufacture thereof” (YARA INTERNATIONAL ASA, priority 2018, dated 2022)
“Also recorded” adds a separate entry of the source.

Assays:
Format in all cases: physicochemical
pH of MgSO4 grades = test: pH of MgSO4 grades
[1] = Volatilization measurements (ammonia release, 2 L diffusion kit, Draeger tube); settings: YaraVera Amidas product comprising 462 ppm nBTPT, treated with stabilizer (FIG. 1, Table 1)
Source text: 1. Volatilization Measurements (Ammonia Release 2 L Diffusion Kit) […] Through the lid, a […] tube is placed for the measurement of vol % ammonia. The […] tube turns from yellow to bleu/purple when ammonia is absorbed by the tube. The amount of vol % ammonia released can be followed in time. Experiment 1 defines the problem.

[2] = Stability of nBTPT on urea ammonium sulphate (YaraVera Amidas) during storage, HPLC analysis of nBTPT content; settings: for Stabilizing effect on nBTPT (MgSO4/MgO combinations): Experiment 4: YaraVera Amidas product comprising 462 ppm nBTPT (FIG. 4)
Experimental: For lab scale experiments, 1.2 kg of solid fertilizer material was added to a lab scale drum. […] A residence time of 10 minutes was applied and the rotating speed of the drum was consequently the same in each experiment. […] Before use, the moisture-repellent coating was preheated to 80° C. Larger scale experiments with amounts up to 40 kg of fertilizer material were performed in a concrete mixer. The samples were stored under several conditions, dependent on the type of samples: • Bagged at room temperature (18-25° C.) • Bagged at 40° C. • Open to air at room temperature (18-25° C.) 3.

In the case of `O=S(=O)([O-])[O-].[Mg+2]` [MgSO4 99.999%, MgSO4 anhydrous, 99.999%], the pH (pH of MgSO4 grades) is reported as 6.1.
With `O=S(=O)([O-])[O-].[Ca+2]` [CaSO4, CaSO4 anhydrous] the Ammonia release [1] was “no ammonia release”.
In the case of `O=S(=O)([O-])[O-].[Na+].[Na+]` [Na2SO4, reference compound], the “nBTPT stability on the YaraVera Amidas product” value ([2]; Experiment 3: open plastic containers at room temperature for 21 days, 462 ppm nBTPT (FIG. 3)) is reported as “negative effect on the stability of nBTPT”.
For `[O]=[Ca]` [CaO, calcium oxide], the Ammonia release [1] was “producing ammonia”.
With `[O]=[Mg]` [MgO, magnesium oxide, reference compound] the “Stabilizing effect on nBTPT (MgSO4/MgO combinations)” value [2] was “more effective than CaO” and the Ammonia release [1] was “producing ammonia”.
With `O=S(=O)([O-])[O-].[Mg+2]` [MgSO4 99.5%, MgSO4 anhydrous, >99.5%] the pH (pH of MgSO4 grades) was 8.5.
In the case of `O=S(=O)([O-])[O-].[Mg+2]` [MgSO4, magnesium sulphate], the “Stabilizing effect on nBTPT in the presence of UAS” value ([2]; Experiment 2: open to air at room temperature 40 days (FIG. 2A) and in bags at 40 °C 8 days (FIG. 2B), 462 ppm nBTPT) is reported as “comparable with the effect of the prior art compound (CaO)”, the “Stabilizing effect on nBTPT (MgSO4/MgO combinations)” value [2] is reported as “little effect” and the “Stabilizing effect at higher level of magnesium sulphate” value ([2]; more than 1 weight % magnesium sulphate in the composition) is reported as “did not produce a proportionally better stabilizing effect”. For the same compound, the Ammonia release [1] was “no ammonia release; also recorded: no ammonia is generated”.
